pIC50: −log10 of the molar value.
System: 521955-158-R2-J5-PDC complex spheroid viability
Test: Anticancer human tumor 521955-158-R2-J5-PDC patient-derived pancreatic carcinoma cell line growth inhibition [GQUAD]
Details: for pIC50: curve of first compound; for viability, T/C: stronger effect = lower value
Summary of the method: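 Multi-cell-type spheroids of tumor cells with HUVEC and mesenchymal stem cells, treated with drug combinations. Concentrations descend in half-log steps from near clinical Cmax, or from 10 microM where Cmax is unknown; viability read-out.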

[1] = second compound 0.0316 µM, first compound 0.0316 µM
[2] = second compound 0.0316 µM, first compound 0.1 µM
[3] = second compound 0.0316 µM, first compound 0.316 µM
[4] = second compound 0.0316 µM, first compound 1 µM
[5] = second compound 0.0316 µM, first compound 3.16 µM
[6] = second compound 0.0316 µM, first compound 10 µM
[7] = second compound 0.1 µM, first compound 0.0316 µM
[8] = second compound 0.1 µM, first compound 0.1 µM
[9] = second compound 0.1 µM, first compound 0.316 µM
[10] = second compound 0.1 µM, first compound 1 µM
[11] = second compound 0.1 µM, first compound 3.16 µM
[12] = second compound 0.1 µM, first compound 10 µM
[13] = second compound 0.316 µM, first compound 0.0316 µM
[14] = second compound 0.316 µM, first compound 0.1 µM
[15] = second compound 0.316 µM, first compound 0.316 µM
[16] = second compound 0.316 µM, first compound 1 µM
[17] = second compound 0.316 µM, first compound 3.16 µM
[18] = second compound 0.316 µM, first compound 10 µM
[19] = second compound 1 µM, first compound 0.0316 µM
[20] = second compound 1 µM, first compound 0.1 µM
[21] = second compound 1 µM, first compound 0.316 µM
[22] = second compound 1 µM, first compound 1 µM
[23] = second compound 1 µM, first compound 3.16 µM
[24] = second compound 1 µM, first compound 10 µM
[25] = second compound 3.16 µM, first compound 0.0316 µM
[26] = second compound 3.16 µM, first compound 0.1 µM
[27] = second compound 3.16 µM, first compound 0.316 µM
[28] = second compound 3.16 µM, first compound 1 µM
[29] = second compound 3.16 µM, first compound 3.16 µM
[30] = second compound 3.16 µM, first compound 10 µM
[31] = second compound 10 µM, first compound 0.0316 µM
[32] = second compound 10 µM, first compound 0.1 µM
[33] = second compound 10 µM, first compound 0.316 µM
[34] = second compound 10 µM, first compound 1 µM
[35] = second compound 10 µM, first compound 3.16 µM
[36] = second compound 10 µM, first compound 10 µM
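Further: spheroids exposed to agents for one week before reading.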
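Wherever viability, T/C is given: 100% = DMSO vehicle control viability.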

## C#Cc1c(F)ccc2cc(O)cc(-c3ncc4c(N5CC6CCC(C5)N6)nc(OCC56CCCN5CC(F)C6)nc4c3F)c12 (stereo unspecified) + CN(C)c1ccc(Nc2c3ccc(NC(=O)CCN4CCCC4)cc3nc3cc(NC(=O)CCN4CCCC4)ccc23)cc1
Second compound 0.0316 µM
  pIC50: 5.75
Second compound 0.1 µM
  pIC50: 5.73
Second compound 0.316 µM
  pIC50: 5.47
Second compound 1 µM
  pIC50: 5.85
Second compound 3.16 µM
  pIC50: 6.80
Second compound 10 µM
  pIC50: > 7.50
[1]
  viability, T/C: 66.3%
[2]
  viability, T/C: 62.5%
[3]
  viability, T/C: 57.5%
[4]
  viability, T/C: 48.1%
[5]
  viability, T/C: 52.5%
[6]
  viability, T/C: 41.7%
[7]
  viability, T/C: 74.2%
[8]
  viability, T/C: 52.2%
[9]
  viability, T/C: 62%
[10]
  viability, T/C: 60.8%
[11]
  viability, T/C: 40.6%
[12]
  viability, T/C: 33.5%
[13]
  viability, T/C: 61.3%
[14]
  viability, T/C: 57%
[15]
  viability, T/C: 62.8%
[16]
  viability, T/C: 52.5%
[17]
  viability, T/C: 53.1%
[18]
  viability, T/C: 32.6%
[19]
  viability, T/C: 74.8%
[20]
  viability, T/C: 56.4%
[21]
  viability, T/C: 60.1%
[22]
  viability, T/C: 50%
[23]
  viability, T/C: 51.6%
[24]
  viability, T/C: 34.2%
[25]
  viability, T/C: 49.7%
[26]
  viability, T/C: 63.3%
[27]
  viability, T/C: 40.5%
[28]
  viability, T/C: 35.8%
[29]
  viability, T/C: 29%
[30]
  viability, T/C: 16.8%
[31]
  viability, T/C: 31.8%
[32]
  viability, T/C: 23.6%
[33]
  viability, T/C: 15.2%
[34]
  viability, T/C: 10.6%
[35]
  viability, T/C: 6.1%
[36]
  viability, T/C: 1.84%

## CC(=O)O[C@H]1C(=O)[C@@]2(C)[C@H]([C@H](OC(=O)c3ccccc3)[C@]3(O)C[C@H](OC(=O)[C@H](O)[C@@H](NC(=O)c4ccccc4)c4ccccc4)C(C)=C1C3(C)C)[C@]1(OC(C)=O)CO[C@@H]1C[C@@H]2O + CN(C)c1ccc(Nc2c3ccc(NC(=O)CCN4CCCC4)cc3nc3cc(NC(=O)CCN4CCCC4)ccc23)cc1
Second compound 0.0316 µM
  pIC50: > 7.50
Second compound 0.1 µM
  pIC50: 7.35
Second compound 0.316 µM
  pIC50: > 7.50
Second compound 1 µM
  pIC50: > 7.50
Second compound 3.16 µM
  pIC50: 7.50
Second compound 10 µM
  pIC50: > 7.50
[1]
  viability, T/C: 46.1%
[2]
  viability, T/C: 40.9%
[3]
  viability, T/C: 35.2%
[4]
  viability, T/C: 32.3%
[5]
  viability, T/C: 27.5%
[6]
  viability, T/C: 34.7%
[7]
  viability, T/C: 55.7%
[8]
  viability, T/C: 37.6%
[9]
  viability, T/C: 30.8%
[10]
  viability, T/C: 23%
[11]
  viability, T/C: 33.9%
[12]
  viability, T/C: 29.9%
[13]
  viability, T/C: 47.7%
[14]
  viability, T/C: 34.1%
[15]
  viability, T/C: 28%
[16]
  viability, T/C: 22.7%
[17]
  viability, T/C: 29.4%
[18]
  viability, T/C: 33.1%
[19]
  viability, T/C: 54.6%
[20]
  viability, T/C: 33%
[21]
  viability, T/C: 28.3%
[22]
  viability, T/C: 33.9%
[23]
  viability, T/C: 39.4%
[24]
  viability, T/C: 38.5%
[25]
  viability, T/C: 50%
[26]
  viability, T/C: 31.1%
[27]
  viability, T/C: 30.3%
[28]
  viability, T/C: 31.5%
[29]
  viability, T/C: 33.4%
[30]
  viability, T/C: 42%
[31]
  viability, T/C: 50.9%
[32]
  viability, T/C: 35.2%
[33]
  viability, T/C: 36.4%
[34]
  viability, T/C: 27.8%
[35]
  viability, T/C: 29.9%
[36]
  viability, T/C: 35.2%

## CCCS(=O)(=O)Nc1ccc(F)c(C(=O)c2c[nH]c3ncc(-c4ccc(Cl)cc4)cc23)c1F + CN(C)c1ccc(Nc2c3ccc(NC(=O)CCN4CCCC4)cc3nc3cc(NC(=O)CCN4CCCC4)ccc23)cc1
Second compound 0.0316 µM
  pIC50: < 5.00
Second compound 0.1 µM
  pIC50: < 5.00
Second compound 0.316 µM
  pIC50: < 5.00
Second compound 1 µM
  pIC50: < 5.00
Second compound 3.16 µM
  pIC50: 5.17
Second compound 10 µM
  pIC50: 5.43
[1]
  viability, T/C: 124%
[2]
  viability, T/C: 89.2%
[3]
  viability, T/C: 80.7%
[4]
  viability, T/C: 118%
[5]
  viability, T/C: 271%
[6]
  viability, T/C: 106%
[7]
  viability, T/C: 102%
[8]
  viability, T/C: 84%
[9]
  viability, T/C: 72.4%
[10]
  viability, T/C: 109%
[11]
  viability, T/C: 264%
[12]
  viability, T/C: 106%
[13]
  viability, T/C: 95.5%
[14]
  viability, T/C: 90.1%
[15]
  viability, T/C: 92.5%
[16]
  viability, T/C: 104%
[17]
  viability, T/C: 248%
[18]
  viability, T/C: 98.3%
[19]
  viability, T/C: 95.4%
[20]
  viability, T/C: 76.4%
[21]
  viability, T/C: 76.8%
[22]
  viability, T/C: 171%
[23]
  viability, T/C: 251%
[24]
  viability, T/C: 85.2%
[25]
  viability, T/C: 73%
[26]
  viability, T/C: 83.6%
[27]
  viability, T/C: 61%
[28]
  viability, T/C: 111%
[29]
  viability, T/C: 174%
[30]
  viability, T/C: 22.9%
[31]
  viability, T/C: 69.9%
[32]
  viability, T/C: 68.4%
[33]
  viability, T/C: 111%
[34]
  viability, T/C: 100%
[35]
  viability, T/C: 58%
[36]
  viability, T/C: 2.26%
